Measurements as given in ChEMBL document CHEMBL3739267, “Synthesis of 2,6-dicarbethoxy-3,5-diaryltetrahydro-1,4-thiazine-1,1-dioxide derivatives as potent anticonvulsant agents” (Eur J Med Chem, 2015).
The source made the active and inactive calls. No cut-off for these calls is given here.

Legend:
[1] = test system: Mus musculus; experiment: Anticonvulsant activity in ip dosed Swiss albino mouse assessed as reduction of maximal electroshock-induced seizure; format: functional
[2] = test system: Mus musculus; experiment: Anticonvulsant activity in ip dosed Swiss albino mouse assessed as reduction of subcutaneous pentylenetetrazole-induced seizure; format: functional
[3] = test system: Mus musculus; experiment: Anticonvulsant activity in ip dosed Swiss albino mouse assessed as reduction of maximal electroshock-induced seizure after 0.5 hrs; format: functional; details: read-out: MED
[4] = test system: Mus musculus; experiment: Anticonvulsant activity in ip dosed Swiss albino mouse assessed as reduction of maximal electroshock-induced seizure after 4 hrs; format: functional; details: read-out: MED
[5] = test system: Mus musculus; experiment: Anticonvulsant activity in ip dosed Swiss albino mouse assessed as reduction of subcutaneous pentylenetetrazole-induced seizure after 0.5 hrs; format: functional; details: read-out: MED
[6] = test system: Mus musculus; experiment: Anticonvulsant activity in Swiss albino mouse assessed as reduction of subcutaneous pentylenetetrazole-induced seizure at 300 mg/kg, ip after 4 hrs; format: functional, organism-based
[7] = test system: Mus musculus; experiment: Neurotoxicity in ip dosed Swiss albino mouse assessed as inability of animal to maintain equilibrium on rod after 4 hrs by rotarod test; format: toxicity, organism-based; details: in vivo
[8] = test system: Mus musculus; experiment: Neurotoxicity in Swiss albino mouse assessed as inability of animal to maintain equilibrium on rod at 300 mg/kg, ip after 0.5 hrs by rotarod test; format: toxicity, organism-based; details: in vivo
[9] = test system: Mus musculus; experiment: Anticonvulsant activity in Swiss albino mouse assessed as reduction of subcutaneous pentylenetetrazole-induced seizure at 300 mg/kg, ip after 0.5 hrs; format: functional, organism-based
[10] = test system: Mus musculus; experiment: (§1) Neurotoxicity in ip dosed Swiss albino mouse assessed as inability of animal to maintain equilibrium on rod after 0.5 hrs by rotarod test; format: toxicity, organism-based; details: in vivo, 0.5 h
[11] = test system: Mus musculus; experiment: Neurotoxicity in Swiss albino mouse assessed as inability of animal to maintain equilibrium on rod at 300 mg/kg, ip after 4 hrs by rotarod test; format: toxicity, organism-based; details: in vivo
[12] = test system: Mus musculus; experiment: Anticonvulsant activity in ip dosed Swiss albino mouse assessed as reduction of subcutaneous pentylenetetrazole-induced seizure after 4 hrs; format: functional; details: read-out: MED
[13] = as §1; format: toxicity, organism-based; details: Swiss albino, in vivo
[14] = test system: Mus musculus; experiment: Protective index, ratio of TD50 for ip dosed Swiss albino mouse assessed as inability of animal to maintain equilibrium on rod after 0.5 hrs by rotarod test to ED50 for Swiss albino mouse assessed as reduction of maximal electroshock-induced seizure; format: functional
[15] = test system: Mus musculus; experiment: Protective index, ratio of TD50 for ip dosed Swiss albino mouse assessed as inability of animal to maintain equilibrium on rod after 0.5 hrs by rotarod test to ED50 for Swiss albino mouse assessed as subcutaneous pentylenetetrazole-induced seizure; format: functional

Row | SMILES | ED50 [1] [mg/kg] | ED50 [2] [mg/kg] | minimal effective dose [3] [mg/kg] | minimal effective dose [4] [mg/kg] | minimal effective dose [5] [mg/kg] | Activity [6] | MTC [7] [mg/kg] | Activity [8] | Activity [9] | MTC [10] [mg/kg] | Activity [11] | minimal effective dose [12] [mg/kg] | TD50 at 0.5 h [13] [mg/kg] | Ratio TD50/ED50 [14] | Ratio TD50/ED50 [15]
1 | NC(=O)N1c2ccccc2C=Cc2ccccc21 [CARBAMAZEPINE] | 11.4 | > 100 | – | – | – | – | – | – | – | – | – | – | – | – | –
2 | CCOC(=O)C1C(c2cccs2)NC(c2cccs2)C(C(=O)OCC)S1(=O)=O (stereo not given) | – | – | 100 | 300 | 300 | inactive | 300 | Non-toxic | – | – | – | – | – | – | –
3 | CCOC(=O)C1C(c2ccsc2)NC(c2ccsc2)C(C(=O)OCC)S1(=O)=O (stereo not given) | – | – | 100 | 300 | 300 | inactive | 300 | Non-toxic | – | – | – | – | – | – | –
4 | O=C1NC(=O)C(c2ccccc2)(c2ccccc2)N1 [PHENYTOIN] | 9.8 | > 300 | 30 | 30 | 100 | inactive | 100 | – | inactive | 100 | – | – | – | – | –
5 | CCOC(=O)C1C(c2ccc(OC)c(OC)c2)NC(c2ccc(OC)c(OC)c2)C(C(=O)OCC)S1(=O)=O (stereo not given) | – | – | 100 | 300 | 300 | inactive | 300 | Non-toxic | – | – | – | – | – | – | –
6 | CCOC(=O)C1C(c2ccco2)NC(c2ccco2)C(C(=O)OCC)S1(=O)=O (stereo not given) | – | – | 300 | 300 | – | inactive | 300 | Non-toxic | inactive | – | – | – | – | – | –
7 | CCOC(=O)C1C(c2ccc[nH]2)NC(c2ccc[nH]2)C(C(=O)OCC)S1(=O)=O (stereo not given) | – | – | 100 | 300 | 300 | inactive | – | – | – | 300 | Non-toxic | – | – | – | –
8 | CCOC(=O)C1C(c2cccc(Cl)c2)NC(c2cccc(Cl)c2)C(C(=O)OCC)S1(=O)=O (stereo not given) | – | – | 100 | 300 | 300 | inactive | – | – | – | 300 | Non-toxic | – | – | – | –
9 | CCOC(=O)C1C(c2cc3ccccc3nc2Cl)NC(c2cc3ccccc3nc2Cl)C(C(=O)OCC)S1(=O)=O (stereo not given) | 12.4 | 62.7 | 30 | 100 | 300 | – | – | Non-toxic | – | – | Non-toxic | 300 | 128 | 10.3 | 2
10 | CCOC(=O)C1C(c2ccc(Cl)cc2)NC(c2ccc(Cl)cc2)C(C(=O)OCC)S1(=O)=O (stereo not given) | 10.2 | 50.5 | 30 | 30 | 100 | – | – | Non-toxic | – | – | Non-toxic | 300 | 289 | 28.3 | 5.7
11 | CCOC(=O)C1C(c2ccc3c(c2)OCO3)NC(c2ccc3c(c2)OCO3)C(C(=O)OCC)S1(=O)=O (stereo not given) | 27.4 | 220 | 30 | 100 | 300 | – | – | Non-toxic | – | – | Non-toxic | 300 | 248 | 9 | 1.1
